From patent EP1581471B9, “CYCLOPENTENONE DERIVATIVES FOR CANCER THERAPY” (Dabur Research Foundation, priority 2002, dated 2004)
≈ marks a conversion by molar mass, not a printed value.

Key:
293 = assay: three day MTT cytotoxicity assay; format: cell-based, human; conditions: 293 (kidney), 72 hours
Description: (§1) A number of the cyclopentenone derivatives were tested for cytotoxicity against 9 human tumor cell lines. Briefly, a three day MTT cytotoxicity assay was performed, which is based on the principle of uptake of MTT (3-(4,5-dimethylthiazol-2-yl)-2,5-diphenyl tetrazolium bromide), a tetrazolium salt, by the metabolically active cells where it is metabolized by active mitochondria into a blue colored formazan product that is read spectrophotometrically. MTT was dissolved in phosphate buffered saline with a pH of 7.4 to obtain an MTT concentration of 5mg/ml; the resulting mixture was filtered through a 0.22 micron filter to sterilize and remove a small amount of insoluble residue. For each type of tumor cell, 10000 to 15000 cells were seeded in a 96-well culture plate and incubated with the individual cyclopentenone derivatives in a CO2 incubator for a total of 72 hours. Control cells not treated with the cyclopentenone derivatives were similarly incubated. The assay was terminated by adding 100 ug (20 ul) of MTT to each well, then incubating for additional one hour, and finally adding 50 ul of 10% SDS-0.01N HCl to each well to lyse the cells and dissolve formazan. After incubating for one hour, the plate was read spectrophotometrically at 540 nm and the percentage of cytotoxicity calculated using the following formula: Cytotoxicity percentage = 100 × [1-(X/R1)], [formula] where X = (absorbance of treated sample at 540 nm) - (absorbance of blank at 540 nm) R1 = absorbance of control sample at 540 nm.
(§2) The ED50 Values of the cytotoxicity defined as the concentration at which 50 % of the cells are killed in vitro was calculated for each cell line treated with each of the cyclopentenone derivatives.
(§3) The cell lines are PTC (all colon), MOLT-4 (leukemia), SW620 […], DU145 (prostate), KB (oral squamous cell), L132 (lung), MIAPaCa2 (Pancreas), Hep2, (larynx), PA-1 (ovary), HuTu80 (duodenum), ECV 304 (endothelial), and 293 (kidney).

DU145 = assay: three day MTT cytotoxicity assay; format: cell-based, human; conditions: DU145 (prostate), 72 hours
Description: as §1, §2, §3

ECV 304 = assay: three day MTT cytotoxicity assay; format: cell-based, human; conditions: ECV 304 (endothelial), 72 hours
Description: as §1, §2, §3

Hep2 = assay: three day MTT cytotoxicity assay; format: cell-based, human; conditions: Hep2 (larynx), 72 hours
Description: as §1, §2, §3

HuTu80 = assay: three day MTT cytotoxicity assay; format: cell-based, human; conditions: HuTu80 (duodenum), 72 hours
Description: as §1, §2, §3

KB = assay: three day MTT cytotoxicity assay; format: cell-based, human; conditions: KB (oral squamous cell), 72 hours
Description: as §1, §2, §3

L132 = assay: three day MTT cytotoxicity assay; format: cell-based, human; conditions: L132 (lung), 72 hours
Description: as §1, §2, §3

MIAPaCa2 = assay: three day MTT cytotoxicity assay; format: cell-based, human; conditions: MIAPaCa2 (Pancreas), 72 hours
Description: as §1, §2, §3

MOLT-4 = assay: three day MTT cytotoxicity assay; format: cell-based, human; conditions: MOLT-4 (leukemia), 72 hours
Description: as §1, §2, §3

PA-1 = assay: three day MTT cytotoxicity assay; format: cell-based, human; conditions: PA-1 (ovary), 72 hours
Description: as §1, §2, §3

PTC = assay: three day MTT cytotoxicity assay; format: cell-based, human; conditions: PTC (colon), 72 hours
Description: as §1, §2, §3

SW620 = assay: three day MTT cytotoxicity assay; format: cell-based, human; conditions: 72 hours
Description: as §1, §2, §3

tubulin = tubulin polymerization in vitro (absorbance at 340 nm); format: biochemical; conditions: tubulin 1mg/ml, 37°C, pH 6.9; read-out: IC50 values (uM) for inhibition of Tubulin Polymerization
Description: The cyclopentenone derivatives were checked for their effects on tubulin polymerization in vitro. Briefly, the tubulin assembly reaction was performed at 37°C in buffer containing 80 mM PIPES, 1mM EGTA, 1.0 mM GTP and 1mM MgCl2 (pH 6.9) at a tubulin concentration of 1mg/ml in the presence or absence of the cyclopentenone derivatives. The final concentration of the cyclopentenone derivatives in the reaction mixture varied from 1-5uM. The derivatives were dissolved in 0.1% DMSO. The control experiments were carried out with 0.1% DMSO. The tubulin polymerization was followed by measurement of the absorbance of the solution at 340 nm every 30 seconds. […] Thus the cyclopentenone derivatives mediated their observed anticancer activities by tubulin depolymerization.

Caspase-3 = Caspase-3 induction in KB cells (colorimetric substrate DEVD-pNA); format: cell-based, Human; conditions: 5ug/ml
Description: Human squamous cell carcinoma (KB) were plated in a 25 cm^2 flask. When cultures achieved confluence, the cyclopentenone derivative of structure 20 was added to the cells. The final concentration of derivative of the structure 20 in the flask was 5ug/ml. The untreated wells served as controls. The cells were incubated with the drug for 2 different time points of 6 and 16 hours at 37°C. The cells were collected by centrifugation at 2000 r.p.m. for 10 minutes. The supernatant was gently removed and discarded while Lysis Buffer was added to the cell pellet (25ul of lysis buffer per […]). The cell lysate was incubated on ice for 10 minutes and centrifuged at 10,000-x g for 1 minute. The supernatant was transferred to a new tube and kept on ice. 50ul of the cell lysate was added in a 96 well plate. To this was added 2x Reaction Buffer. Prior to using reaction buffer, 10ul of fresh DTT stock per 1 ml of 2x Reaction Buffer was added. To each well 5ul of Caspase-3 colorimetric substrate (DEVD-pNA) was added. The plate was incubated for 1-2 hours at […]. and read at 405nm.
The level of caspase enzymatic activity in the cell lysate is directly proportional to the absorbance at 405nm. […]

VEGF = VEGF levels in ECV304 endothelial cells (ELISA); format: cell-based, Human; conditions: 5ug/ml, 4 hours
Description: Human endothelial cells (ECV304) were plated at the density of 8-10 x10^5 cells per 2 ml in a six well plate. After an overnight incubation of cells at 37°C, cyclopentenone derivatives at a concentration of 5ug/ml was added to the wells. The untreated wells served as controls. The plates were incubated for 4 hours at 37°C. The medium was collected from all the wells (control and treated) and spun down at 2000 r.p.m to remove the cellular material. The supernatant was collected and used for ELISA (Quantikine human VEGF, R&D Systems). The assay employs the quantitative sandwich enzyme immunoassay technique. A monoclonal antibody specific for VEGF has been pre-coated onto a microplate. Standards and samples were pipetted into the wells and VEGF present was bound by the immobilized antibody. After washing away the unbound substances, an enzyme-linked polyclonal antibody specific for VEGF was added to the wells. Following a wash to remove any unbound antibody-enzyme reagent, a substrate solution was added to the wells and color developed in proportion to the amount of VEGF bound in the initial step. The optical density of each well was determined within 30 minutes using a microplate reader set to 450nm and reference wavelength at 540nm. The VEGF levels were inhibited by the addition of cyclopentenone derivatives in vitro.

PTC tumor xenografts = assay: In vivo anti-tumor activity on PTC tumor xenografts; design: species or system Balb/c athymic mice; conditions: intravenously 0.5 mg/100 µL once a day for 14 days, day 23, compared to controls
Description: PTC tumor xenografts were grown in Balb/c athymic mice by subcutaneous inoculation of a single cell suspension of PTC cells (15 X 10^6 cells/100 µL). The tumor bearing animals were divided into 2 groups of three animals each including one group comprising untreated control animals. Treatment with compound of formula no. 49 was initiated when the average tumor volumes, as measured using a vernier caliper, were […]. Compound of formula no. 49 was administered intravenously to the assigned group of tumor bearing animals at a dose of 0.5 mg/100 µL once a day and the treatment was continued for a period of 14 days.
The antitumor activity of the compound was monitored by measuring tumor volumes every fourth day using the formula W*W*L*0.4 (W = smaller diameter, L = larger diameter). The percentage inhibition of tumor growth was calculated using the formula (1- tumor volume-treated / tumor volume-control) * 100. […] Compound of formula no. […] The percentage inhibition of tumor growth caused compound of formula no. 49 as compared to controls on day 23 was 45.8%.

## COc1ccc(C2=C(c3cc(OC)c(OC)c(OC)c3)C(=O)CC2O)cc1O (stereo not shown) [Compound 39]
293
  ED50 (ug/ml) 293: >100 µg/mL
DU145
  ED50 (ug/ml) DU145: 8 ± 1.5 µg/mL (≈ 20.7 µM)
ECV 304
  ED50 (ug/ml) ECV 304: >100 µg/mL
Hep2
  ED50 (ug/ml) Hep2: <1 µg/mL
HuTu80
  ED50 (ug/ml) HuTu80: 1.5 ± 0.1 µg/mL (≈ 3.88 µM)
KB
  ED50 (ug/ml) KB: <1 µg/mL
L132
  ED50 (ug/ml) L132: <1 µg/mL
MIAPaCa2
  ED50 (ug/ml) MiaPaca: >100 µg/mL
MOLT-4
  ED50 (ug/ml) MOLT4: 62.5 ± 5.0 µg/mL (≈ 162 µM)
PA-1
  ED50 (ug/ml) PA1: <1 µg/mL
PTC
  ED50 (ug/ml) PTC: 78 ± 4.0 µg/mL (≈ 202 µM)
SW620; SW620 (colon)
  ED50 (ug/ml) SW620: <1 µg/mL
tubulin
  IC50: 1.4 ± 0.6 µM
Caspase-3
  Percent Induction of Caspase-3 6 hours: 12.8 ± 0.2%
  Percent Induction of Caspase-3 16 hours: 17.0 ± 1.5%
VEGF
  Percent Reduction in VEGF: 21.9 ± 1.5%

## COc1ccc(C2=C(c3cc(OC)c(OC)c(OC)c3)C(=NO)C(O)C2)cc1 (stereo not shown) [Compound 49]
DU145
  ED50 (ug/ml) DU145: >100 µg/mL
ECV 304
  ED50 (ug/ml) ECV 304: >100 µg/mL
Hep2
  ED50 (ug/ml) Hep2: <1.0 µg/mL
KB
  ED50 (ug/ml) KB: <1.0 µg/mL
L132
  ED50 (ug/ml) L132: < 1.0 µg/mL
MIAPaCa2
  ED50 (ug/ml) MiaPaca: 24 ± 3.5 µg/mL (≈ 62.3 µM)
MOLT-4
  ED50 (ug/ml) MOLT4: <1.0 µg/mL
PA-1
  ED50 (ug/ml) PA1: <1.0 µg/mL
PTC
  ED50 (ug/ml) PTC: <1.0 µg/mL
SW620; SW620 (ovary)
  ED50 (ug/ml) SW620: <1.0 µg/mL
tubulin
  IC50: 2.3 ± 0.5 µM
Caspase-3
  Percent Induction of Caspase-3 6 hours: 26.7 ± 2.8%
  Percent Induction of Caspase-3 16 hours: 31.9 ± 3.2%
VEGF
  Percent Reduction in VEGF: 38.6 ± 1.9%
PTC tumor xenografts
  percentage inhibition of tumor growth: 45.8%
